Measurements taken from patent publication US5310741A, “TAN-1251 compounds and their production from penicillium thomii” (Takeda Chemical Industries, Ltd., priority 1990, dated 1994).

Legend:
[1] = type: physicochemical
Excerpt: Below presented as the physicochemical properties of the respective species of TAN-1251 prepared in the Examples given hereinafter.

Muscarinic receptor = type: binding, Wistar rat; conditions: 3H-QNB radioligand, room temperature, 60 minutes; read-out: Radio receptor assay IC50
mice = assay: Acute toxicity, oral administration in mice; type: in vivo; conditions: 100 mg/kg
Description: For assessment of the acute toxicity of TAN-1251, an oral administration experiment using TAN-1251A and B was performed in mice.

[2] = tested on: acetylcholine-induced contraction of the isolated Guinea pig ileum; assay: Antagonizing activity against acetylcholine-induced contraction of the isolated Guinea pig ileum; parameters: species or system Guinea pig (Std Hartley); conditions: Cavia porcellus, 5 min; acetylcholine 1×10^-7 M, 37° C., 5 minutes equilibration; read-out: Guinea pig ileal contractility ED50 (50% inhibition of the maximal contraction)
Description: (b) Antagonizing activity against acetylcholine-induced contraction of the isolated Guinea pig ileum
A Guinea pig (Std Hartley, male, 250 g, Japan SLC) deprived of food for 24 hours was subjected to brain concussion and after exsanguination from the carotid artery, the ileum was isolated. An ileal strip, about 3 cm long, was prepared and suspended in a Magnus tube containing 20 ml of Tyrode solution. At a constant bath temperature of 37° C., a mixed gas (95% O2 -5% CO2) was bubbled through the bath. The sample was added and after 5 minutes of equillibration, acetylcholine (Daiichi Seiyaku, Japan) was added at a final concentration of 1×10^-7 M to induce contraction of the ileal strip. The contraction was recorded through an isotonic transducer (ME-4013, Suruga Electronics, Japan) on a recorder (Rectiholy 8K, Japan Electronics Sanei, Japan). The activity of the same was expressed in ED50 representing 50% inhibition of the maximal contraction.

Row | SMILES | Properties (basicity and liposolubility) [1] | IC50 (Muscarinic receptor) [nM] | toxic signs (acute toxicity) (mice) | IC50 [2] [nM]
1 | CC(C)=CCOc1ccc(C=C2CN(C)C3CN2C2(CCC(=O)CC2)C3)cc1 (stereo not shown) [Compound 1] | Basic and liposoluble | 5.7 | no toxic signs were observed | 8
2 | CC(C)=CCOc1ccc(C=C2CN(C)C3CN2C2(CCC(=O)C(O)C2)C3)cc1 (stereo not shown) [Compound 2] | Basic and liposoluble | 0.13 | no toxic signs were observed | 13
3 | CC(C)=CCOc1ccc(CC2=CN(C)C3CN2C2(CCC(=O)CC2)C3)cc1 (stereo not shown) [Compound 3] | Basic and liposoluble | – | – | –
4 | CC(C)=CCOc1ccc(CC2CN(C)C3CN2C2(CCC(=O)CC2)C3)cc1 (stereo not shown) [Compound 4] | Basic and liposoluble | – | – | –
